Experiments:
HIV-2 (wild type) = molecular target: T1, HIV-2 (wild type) (Human immunodeficiency virus type 2 subtype A, UniProt P04584); assay: Inhibition of different HIV RTs, poly C-[dG]12-18 template; format: biochemical; details: poly C-[dG]12-18, [^3 H]dGTP; approximate
T1 construct: with the RT from four different strains of the human virus: HIV-1 RT (wild type), HIV-2 (wild type)

[1] = molecular target: HIV-141,215 RT (AZT-resistant mutant, Thr 215→Tyr, Met 41→Leu) (Human immunodeficiency virus type 1 group M subtype B, UniProt P04585, M628L/T802Y); assay: as above; format: biochemical, HIV-1; details: poly C-[dG]12-18, [^3 H]dGTP; approximate
HIV-1 RT (wild type) = molecular target: T2, HIV-1 RT (wild type) (Human immunodeficiency virus type 1 group M subtype B, UniProt P04585); assay: as above; format: biochemical; details: poly C-[dG]12-18, [^3 H]dGTP; approximate
T2 construct: HIV-1 RT (wild type)

[2] = molecular target: T3, HIV-1181c RT (Nevirapine-resistant mutant) (Human immunodeficiency virus type 1 group M subtype B, UniProt P04585, Y768C); assay: as above; format: biochemical, HIV-1; details: poly C-[dG]12-18, [^3 H]dGTP; approximate
T3 construct: HIV-1181c RT (Nevirapine-resistant mutant)

murine leukemia RT = murine leukemia RT (Moloney murine leukemia virus, UniProt P03355); details: cited from earlier work
HIV RT = molecular target: T4, HIV RT (Human immunodeficiency virus type 1 group M subtype B, UniProt P04585); assay: Inhibition of viral reverse transcriptase in solution, HIV RT; format: biochemical
T4 construct: Reverse transcriptase samples from HIV (HIV RT)
Protocol: Reverse transcriptase samples from HIV (HIV RT) and from Moloney murine leukemia virus (MLV RT) and from avian myeloblastosis virus (AMV RT) were separately incubated with FDNP-poly[A] at 25° C. in a Tris-HCl buffer (0.1M, pH 8.2) containing 1 mM MgCl2 and 125 mM KCl and measured for RT activity. In each experiment, the selected enzyme was incubated for 10 minutes at 25° C. in an incubation mixture containing the potassium salt of the inhibitor at a given concentration. After ten minutes the incubated mixture was rapidly injected into an assay solution and further incubated for 10 min at 37° C., then precipitated with trichloroacetic acid, washed, and assayed for the radioactive polynucleotide formed by scintillation counting. The assay mixture contained 125 mM Tris-HCl (pH 8.2), 1 mM MgCl2, 125 mM KCl, 250 μM [^3 H]dTTP as the substrate and 23 nM Poly[A]-[dT],12 as the template.
Similar results were obtained with DNP-poly[A].

T1 sequence (P04584 613-1171 limits assumed): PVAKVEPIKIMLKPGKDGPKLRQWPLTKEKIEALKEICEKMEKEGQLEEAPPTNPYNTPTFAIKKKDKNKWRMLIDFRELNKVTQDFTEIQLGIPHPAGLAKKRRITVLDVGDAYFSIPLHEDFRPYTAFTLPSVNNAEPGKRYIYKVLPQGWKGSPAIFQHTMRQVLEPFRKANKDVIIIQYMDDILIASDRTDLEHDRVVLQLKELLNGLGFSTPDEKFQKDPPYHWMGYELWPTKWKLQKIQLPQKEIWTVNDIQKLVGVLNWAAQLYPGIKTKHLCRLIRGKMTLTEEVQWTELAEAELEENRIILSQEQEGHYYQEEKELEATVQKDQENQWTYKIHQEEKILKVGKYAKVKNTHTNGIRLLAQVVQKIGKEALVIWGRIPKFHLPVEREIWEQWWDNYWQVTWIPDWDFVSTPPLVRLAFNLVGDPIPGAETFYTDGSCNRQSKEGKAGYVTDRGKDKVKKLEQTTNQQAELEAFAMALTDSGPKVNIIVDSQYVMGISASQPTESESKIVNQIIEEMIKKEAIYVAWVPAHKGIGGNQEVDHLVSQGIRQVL
T1 sequence (P04584 613-1052 partner limits assumed): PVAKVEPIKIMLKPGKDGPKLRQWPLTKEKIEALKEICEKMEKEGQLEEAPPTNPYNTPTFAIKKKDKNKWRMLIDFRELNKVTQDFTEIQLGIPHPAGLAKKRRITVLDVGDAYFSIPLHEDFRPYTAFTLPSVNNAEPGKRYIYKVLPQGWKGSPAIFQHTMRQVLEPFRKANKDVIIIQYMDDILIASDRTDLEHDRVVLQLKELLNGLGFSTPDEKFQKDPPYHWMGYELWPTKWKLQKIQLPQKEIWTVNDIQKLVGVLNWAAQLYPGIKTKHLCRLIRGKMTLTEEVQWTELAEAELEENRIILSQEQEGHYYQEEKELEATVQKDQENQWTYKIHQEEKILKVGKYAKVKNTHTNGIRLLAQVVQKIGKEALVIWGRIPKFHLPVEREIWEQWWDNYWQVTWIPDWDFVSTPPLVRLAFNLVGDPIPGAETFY

## polyadenylic acid (5') [Poly[A]]
HIV-2 (wild type)
  IC50 of the RT, HIV-2 (wild): no inhibitory effect
[1]
  IC50 of the RT, HIV-141,215: no inhibitory effect
HIV-1 RT (wild type)
  IC50 of the RT, HIV-1 (wild): no inhibitory effect
[2]
  IC50 of the RT, HIV-1181C: no inhibitory effect

## poly(2-fluoroadenylic acid) [(fl^2 A)n]
Murine leukemia RT
  IC50: 0.04 µg/mL

## Nc1ncnc2c1ncn2[C@@H]1O[C@H](COP(=O)(O)OP(=O)(O)OP(=O)(O)O)[C@@H](Oc2cc(F)c([N+](=O)[O-])cc2[N+](=O)[O-])[C@H]1O [the corresponding ATP ether, 3'-O-(5-fluoro-2,4-dinitrophenyl) ATP ether]
HIV RT
  molar concentration required to inhibit HIV RT: million-fold higher molar concentration

## Nc1ncnc2c1ncn2[C@@H]1O[C@H](COP(=O)(O)OP(=O)(O)O)[C@@H](Oc2cc(F)c([N+](=O)[O-])cc2[N+](=O)[O-])[C@H]1O [3'-O-(5-fluoro-2,4-dinitrophenyl) ADP ether]
HIV RT
  molar concentration required to inhibit HIV RT: million-fold higher molar concentration

Source: US5496546A, “Compositions and methods of application of reactive antiviral polyadenylic acid derivatives” (priority 1994, dated 1996)
